Results taken from US20100087534A1, “Use of a Photosensitizing Agent in the Treatment or Prevention of an Inflammation-Associated Disorder in the Gastrointestinal Tract of a Mammal” (priority 2005, published 2010).

Assays:
[1] = tested on: CD4+ cells in the inflamed colonic mucosa; test: Annexin-V mediated detection of apoptosis in CD4+ cells of colonic mucosa; format: in vivo, SCID mice; conditions: time zero reference 1.8±0.2%
Protocol: PDT was performed with a photosensitizing agent (δ-ALA) dose of 15 mg/kg, administered 3 hours before the illumination with the energy dose of 10 J/cm^2 per gastrointestinal tract tissue.
For Annexin-V mediated detection of apoptosis mice were sacrificed 4 or 20 hours after low dose PDT later. Untreated inflamed mice were also sacrificed and were considered as the time zero reference. In order to extract cells from the colonic mucosa, treated portions of the colons, or equivalent portions in untreated mice, were collected, cut into small pieces and individually incubated for 20 minutes at room temperature under constant agitation in a PBS solution containing 5 mM EDTA. […] Cells were then analyzed through a FACscan flowcytometer (Becton Dickinson), once in the absence of propidium iodide (PI) and once in the presence of PI in order to identify population of viable cells. The percentage of Annexin-V^+ cells within the CD4^+ population was finally calculated based on a forward and side scatter gated population consisting of viable cells (>98% of PI negative cells) and containing the most percentage of CD4^+ cells (>80%).

IFN-γ = IFN-γ expression index in colon of transfer colitis SCID mice (FIG. 2); format: in vivo
Protocol: FIG. 2 represents the expression indices of the proinflammatory markers IFN-γ and TNF-α in untransfered mice, disease control group and PDT group (15 mg/kg of δ-ALA, 10 J/cm^2).
Typically, the expression index of each pro-inflammatory marker of interest is calculated (normalized number of mRNA copies of each manipulated mice/normalized number of mRNA copies of the unmanipulated mice). The results are given as mean values of the expression index (unmanipulated mean mice index=1). […]
The third portion was used for measuring the expression of the molecules involved in immune and inflammatory phenomenons in the colonic mucosa (cytokines, chemokines). […] Quantification of reverse transcripted messenger RNA for GAPDH, the inducible nitric oxide synthetase (iNOS), interferon-gamma (IFN-γ), interleukin-1 receptor antagonist (IL1-Ra), tumor necrosis factor alpha (TNF-α), interleukin 6 (IL-6), tumor growth factor beta (TGF-13) and interleukin10 (IL-10) was performed by quantitative real-time PCR in a BioRad Real-time PCR iCycler using specific pairs of primers and the green fluorescence dye SYBR—Green®. GAPDH was used to normalize quantifications within each individual sample (normalization of the number of mRNA copies for the gene of interest/1 million mRNA copies of the GAPDH gene of the investigated mouse). […]

IL-1Ra = test: Expression index of IL-1Ra mRNA in illuminated colon, quantitative real-time PCR; format: in vivo, BALB/c mice
Excerpt: (§1) The third portion was used for measuring the expression of the molecules involved in immune and inflammatory phenomenons in the colonic mucosa (cytokines, chemokines). For RNA extraction this portion was conserved in RNA-later solution (Ambion Inc. Austin, USA) until processing. RNA was extracted from the tissues using a Rneasy Mini kit (Qiagen, Hombrechtikon, Switzerland). RNA samples were submitted to a second or third DNAse treatment in order to get rid of all traces of genomic DNA. Quality of the RNA samples was tested on agarose gels and absence of genomic DNA was tested by PCR using primers specific for a house keeping gene, glyceraldehydes-3-phosphate-dehydrogenase (GAPDH). RNA preparations were then submitted to reverse transcription using the ThermoScript™ RT-PCR system (Invitrogen, Basel, Switzerland) using an Oligo-dT as primer. Quantification of reverse transcripted messenger RNA for GAPDH, the inducible nitric oxide synthetase (iNOS), interferon-gamma (IFN-γ), interleukin-1 receptor antagonist (IL1-Ra), tumor necrosis factor alpha (TNF-α), interleukin 6 (IL-6), tumor growth factor beta (TGF-13) and interleukin10 (IL-10) was performed by quantitative real-time PCR in a BioRad Real-time PCR iCycler using specific pairs of primers and the green fluorescence dye SYBR—Green®. GAPDH was used to normalize quantifications within each individual sample (normalization of the number of mRNA copies for the gene of interest/1 million mRNA copies of the GAPDH gene of the investigated mouse). Expression of each gene of interest was finally calculated as an expression index (normalized number of mRNA copies of each manipulated mice/normalized number of mRNA copies of the unmanipulated mice) and the results are given as mean values of the expression index (unmanipulated mean mice index=1). Furthermore one kidney and a part of the liver were collected for pathological analysis to exclude hepato- or nephrotoxicity.

iNOS = test: Expression index of iNOS mRNA in illuminated colon, quantitative real-time PCR; format: in vivo, BALB/c mice; conditions: high dose PDT: 50 J/cm^2, 60 mg δ-ALA; 74 h; unmanipulated mice index=1
Excerpt: as §1, with “RNA preparations were then submitted to reverse transcription using the ThermoScript™ RT-PCR system (Invitrogen, Basel, Switzerland) using an Oligo-dT as primer.” left out, “Expression of each gene of interest was finally calculated as an expression index (normalized number of mRNA copies of each manipulated mice/normalized number of mRNA copies of the unmanipulated mice) and the results are given as mean values of the expression index (unmanipulated mean mice index=1). Furthermore one kidney and a part of the liver were collected for pathological analysis to exclude hepato- or nephrotoxicity.” left out

[2] = Safety of colonoscopy and low/high dose PDT in wild type BALB/c mice

Structure (SMILES): NCC(=O)CCC(=O)O [δ-ALA, 5-aminolevulinic acid]
- percentage of Annexin V+ cells in the CD4+/PI- population ([1]; 4 hours after low dose PDT, P=0.0043): 3.0±0.3%
- percentage of Annexin V+ cells in the CD4+/PI- population ([1]; 20 hours after low dose PDT, P=0.0012): 4.6±0.5%
- expression index IFN-γ after low dose PDT (IFN-γ; 15 mg/kg δ-ALA, 10 J/cm^2, versus disease control group (FIG. 2)): decreased significantly
- decrease of the expression of pro-inflammatory marker IFN-γ (IFN-γ; 10 J/cm^2, 15 mg/kg δ-ALA, compared to "colonoscopy" mice, deduced from FIG. 2): 73%
- expression index IL-1Ra (IL-1Ra; high dose PDT: 50 J/cm^2, 60 mg δ-ALA, 74 h, unmanipulated mice index=1): 4.54±1.21
- expression index IL-1Ra (IL-1Ra; low dose PDT 15 mg/kg δ-ALA, 10 J/cm2): 0.94±0.08
- expression index IL-1Ra (IL-1Ra; low dose PDT 5J/cm2, 15 mg/kg δ-ALA): 1.14±0.11
- expression index iNOS (iNOS): 27.78±10.47
- signs of skin phototoxicity ([2]; all experimental groups): no signs of skin phototoxicity were observed
- histology of colon (microscopic changes) ([2]; all groups other than high dose PDT): no microscopic changes were observed
- exterior aspect of mice (quality of life) ([2]; all groups other than high dose PDT (low dose PDT, δ-ALA only), 74 h observation): the exterior aspect of mice remained unchanged
- changes in the blood formula ([2]; any of the experimental conditions, 0 and 74 h): No significant changes in the blood formula were seen
- inflammatory cells by anti-MAC immunostaining ([2]; high dose PDT, compared to naïve mice): an increase of inflammatory cells was observed
- inflammatory cells by anti-MAC immunostaining ([2]; low dose PDT): did not lead to an increase in inflammatory cells
- macroscopic aspect of colon ([2]; low dose PDT, 74 hours): the colon appeared macroscopically normal
